ChEMBL document CHEMBL1147040, “Potent inhibition of HIV-1 replication by novel non-peptidyl small molecule inhibitors of protease dimerization” (J Biol Chem, 2007)
Calls of active or inactive are those of the source. The rule behind the calls is not given here.

Experiments:
[1] = tested on: Human immunodeficiency virus 1; experiment: Antiviral activity against HIV1 LAI in MT2 cells; assay type: functional, organism-based; conditions: Human immunodeficiency virus 1, LAI
[2] = target: Protease (Human immunodeficiency virus 1) (UniProt Q9YQ12); experiment: Inhibition of HIV1 protease dimerization in COS7 cells at 1 uM
[3] = target: Protease (Human immunodeficiency virus 1, UniProt Q9YQ12); experiment: Inhibition of HIV1 protease
Protease, sequence (Q9YQ12 whole entry): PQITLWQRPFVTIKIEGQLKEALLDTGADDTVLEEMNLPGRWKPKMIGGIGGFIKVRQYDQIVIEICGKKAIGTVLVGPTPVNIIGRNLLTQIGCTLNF

Protease (Human immunodeficiency virus 1), sequence (Q9YQ12 as listed by the source): as the sequence (Q9YQ12 whole entry) above

Structure (SMILES) | IC50 [1] [nM] | Activity [2] | Ki [3] [nM]
COc1ccc(S(=O)(=O)N(CC(C)C)C[C@@H](O)[C@H](Cc2ccccc2)NC(=O)C[C@H]2CO[C@H]3OCC[C@@H]23)cc1 | 480 | Active | 
CC(C)CN(C[C@@H](O)[C@H](Cc1ccccc1)NC(=O)O[C@H]1CO[C@H]2OCC[C@H]21)S(=O)(=O)c1ccc(N)cc1 | 3.4 | Active | 
CC(C)CN(C[C@@H](O)[C@H](Cc1ccccc1)NC(=O)O[C@@H]1C[C@@H]2CCO[C@@H]2C1)S(=O)(=O)c1ccc(CO)cc1 | 1.4 | Active | 0.0035
CC(C)CN(C[C@@H](O)[C@H](CSc1ccccc1)NC(=O)O[C@@H]1C[C@@H]2CCO[C@@H]2C1)S(=O)(=O)c1ccc(CO)cc1 | 5 | Active | 0.029
CCC[C@@]1(CCc2ccccc2)CC(O)=C([C@H](CC)c2cccc(NS(=O)(=O)c3ccc(C(F)(F)F)cn3)c2)C(=O)O1 | 100 |  | 

Molecules with a lower IC50 [1], results first:

IC50 [1] [nM] | Activity [2] | Ki [3] [nM] | Structure (SMILES)
0.4 | Active | 0.014 | CC(C)CN(C[C@@H](O)[C@H](Cc1ccccc1)NC(=O)O[C@H]1CO[C@H]2OCC[C@H]21)S(=O)(=O)c1ccc2c(c1)OCO2
0.3 | Active |  | COc1ccc(S(=O)(=O)N(CC(C)C)C[C@@H](O)[C@H](Cc2ccccc2)NC(=O)O[C@H]2CO[C@H]3OCC[C@H]32)cc1
0.2 | Active | 0.0068 | Cc1nc(COc2ccc(C[C@H](NC(=O)O[C@H]3CO[C@H]4OCC[C@H]43)[C@H](O)CN(CC(C)C)S(=O)(=O)c3ccc4c(c3)OCO4)cc2)cs1 [BRECANAVIR]
